According to article PMC8538783, “Green Oxidation of Amines by a Novel Cold-Adapted Monoamine Oxidase MAO P3 from Psychrophilic Fungi Pseudogymnoascus sp. P3” (Molecules, 2021):
Values joined by “and” are separate entries in the source; they are usually repeats but may differ in a detail not shown here. Equal values may be shown once. Read-outs that look alike come from different tables or passages of the source.

How the values were obtained:
[1] = test system: native MAO N; settings: cited from earlier work
[2] = test system: MAO P3; assay: Effect of extra FAD in the reaction mixture on MAO P3 activity; type: biochemical, Pseudogymnoascus sp. P3; settings: 0.2 mM FAD in reaction mixture, compared to holoenzyme without supplementation of FAD
Description: (§1) The activity of MAO P3 was measured by a colorimetric method which is based on the formation of orange-brownish tetraguaiacol in the presence of H2O2 and peroxidase (insert in Figure 2A). The reaction mixture contained 0.5 mL of the enzyme sample, 0.25 mL of 10 mM potassium phosphate buffer pH 7.2, 0.25 mL of 20 mM amine substrate (to identify a potential MAO producer, primary–n-butylamine, and secondary–6,6-dimethyl-3-azabicyclohexane, amines were used), 0.02 mL of peroxidase (90 U/mL), and 0.4 mL of 0.02 M guaiacol (all reagents from MerckMillipore, Burlington, MA, USA). The reaction mixture was incubated at 30 °C for 30 min.
Reconstruction of flavoprotein MAO P3 was carried out in 10 mM potassium phosphate buffer pH 7.2 in a total volume of 5 mL, with different conditions of: FAD concentration (5, 10, 15, 20, 25, and 50 μM), temperature (5, 10, 15, 20, 25, and 30 °C), and time of incubation (from 10 min to 60 min). After incubation, extra FAD was removed by centrifugation at 5000 rpm, 4 °C, 20 min in Centricon concentrators of MWCO of 10 kDa (MerckMillipore, Burlington, MA, USA). The absorption spectrum was measured on a flat-bottom 96-well plate on a MultiScanGo plate reader (ThermoFisher Scientific, Waltham, MA, USA).

[3] = test system: MAO P3; assay: Substrate specificity (Vmax, Km) of purified MAO P3, GC-MS; type: biochemical, Pseudogymnoascus sp. P3
Description: (§2) Substrate specificity of MAO P3 was examined towards sixteen amine substrates (listed in Table 3) that differed in the number of carbons and various substitutions. Bioconversion was carried out in 5 mL glass tubes (Schott, Germany), where the total volume of the reaction was 2.5 mL and was comprised of 1 mL of MAO P3 (1 U/mL), where the cell-free extracts were used for the initial oxidation screening and the purified enzyme, for substrate specificity. An amount of 0.75 mL of a substrate (in the range of concentrations between 10 and 100 mM) was resuspended in 0.1 M potassium phosphate pH 7.2, and 0.75 mL of 10 mM potassium phosphate buffer pH 7.2. Initial oxidation screening was carried out for 4 h at 30 °C, 810 rpm. The substrate specificity was measured at 30 °C; reactions were carried out for 5 h, 810 rpm. In order to analyze the products of the bioconversion, samples were first neutralized by the addition of 0.25 mL of 1 M NaOH. An amount of 0.5 mL of dichloromethane was added to samples and incubated at room temperature with shaking for 1 min. The samples were centrifuged for 5 min, 5000 rpm, 4 °C. The organic phase was collected for the gas chromatography-mass spectrometry (GC-MS) analysis. The Km values were calculated based on […] curves (see the Supplementary Materials).
(§3) GC-MS analyses were carried out on a Pegasus 4D (LECO, USA) apparatus, equipped with an Agilent 6890N gas chromatograph coupled with a time-of-flight mass spectrometer (LECO, Saint Joseph, MI, USA). Samples were injected with the GerstelMultiPurpose sampler (MPS 2). The GC was fitted with a BPX5 capillary column of 30 m × 0.25 mm × 0.25 µm (SGE). Helium was used as a carrier gas with a flow rate of 1.5 mL/min. The injector temperature was held at 250 °C. The oven temperature was initially held at 40 °C for 2 min, ramped up to 200 °C by 10 °C/min; the total run time was 20 min. The detector was operated in EI mode with the transfer line maintained at 280 °C. All substrates were purchased from MerckMillipore, USA, and quantified by GC analysis based on their peak areas and calibration curves prepared for each individual. GC-MS spectra are presented in the Supplementary Materials.
Method S3. Determination of Km and Vmax values based on Lineweaver-Burk curves
The double-reciprocal curve was create based on the inverse initial velocity as a function of the inverse substrate
concentration. Curves were created for each amine substrate (Fig. S2), based on the results of GC-MS analysis (Paragraph
Figure S4. The double-reciprocal curves for MAO P3 amines substrates: A. 3-azabicyclo[3.3.0]octane;
B. hexamethyleneimine; C. 6,6-dimethyl-3-azabicyclohexane; D. cyclopentylamine; E. α-methylbenzylamine;
F. pyrrolidine; G. sec-butylamine; H. indoline.
(1 picture or pasted object on this page, not shown here)

[4] = test system: MAO P3; assay: Initial oxidation screening: bioconversion of amine substrates by cell-free extract, GC-MS; type: biochemical, Pseudogymnoascus sp. P3; settings: for Rate of Oxidation: 10 mM substrate, 10 mM potassium phosphate buffer pH 7.2, cell-free intracellular extract of P3 strain, 4 h at 30 °C, relative to compound 9 = 100%
Description: as §2
as §3, with “Samples” for “GC-MS analyses were carried out on a Pegasus 4D (LECO, USA) apparatus, equipped with an Agilent 6890N gas chromatograph coupled with a time-of-flight mass spectrometer (LECO, Saint Joseph, MI, USA). Samples”, “The GC was fitted with a BPX5 capillary column of 30 m × 0.25 mm × 0.25 µm (SGE).” left out

[5] = test system: MAO P3; assay: as above; type: biochemical, Pseudogymnoascus sp. P3; settings: 24 h of incubation at 30 °C with shaking
[6] = test system: MAO N (N338S, M348K); set-up: method as in PMID 12207381; settings: MAO N with two point mutations (N338S, M348K); cited from earlier work
[7] = test system: MAO; assay: Colorimetric MAO activity assay of intracellular protein extract of P3 strain; type: biochemical, Pseudogymnoascus sp. P3; settings: 30 °C, 30 min
Description: as §1
The absorbance of the samples was measured at 436 nm on the UV/visible spectrophotometer (UV-1800 Shimatdsu, Kyoto, Japan). A unit of enzyme activity was defined as the amount of enzyme that catalyzes the formation of 1.0 μmol of H2O2 per min.
Figure 2 MAO biosynthesis in 14 psychrophilic fungi strains. The activity was measured towards a primary amine (n-butylamine) and a secondary amine (6,6-dimethyl-3-azabicyclohexane), for each substrate. The reaction was carried out at 30 °C for 30 min with continuous shaking in 10 mM potassium phosphate buffer […]. (A) Activity after the growth in the induction medium, without inoculation from a solid culture; insert: scheme of the measurement of MAO activity in psychrophilic fungi strains; absorbance of tetraguaiacol is measured at 436 nm. (B) Activity after the growth in the induction medium, with inoculation from a solid culture.

[8] = test system: MAO N D5; set-up: method as in PMID 20146293; settings: recombinant MAO N D5; cited from earlier work
[9] = test system: MAO A; set-up: method as in PMID 11134050; settings: cited from earlier work
[10] = target: MAO P3; assay: Inhibition analysis of MAO P3 by clorgyline, colorimetric guaiacol/peroxidase assay; type: biochemical, Pseudogymnoascus sp. P3; settings: preincubated 30 min at 30 °C; substrate 6,6-dimethyl-3-azabicyclohexane
Description: The enzyme was preincubated with different concentrations (from 0.1 to 10^−8 mM) of clorgyline (MerckMillipore, Burlington, MA, USA) for 30 min at 30 °C. MAO P3 activity was measured according to the above-mentioned procedure. Clorgyline solution (1 mM) was prepared in 10 mM potassium phosphate buffer pH 7.2.

[11] = test system: Pseudogymnoascus sp. P3; type: cell-based
Description: The 125 mL cultures were inoculated from the glycerol stocks. The strains were cultured at 20 °C for 14 days with shaking at 100 rpm in 0.5 L flasks. The growth medium was composed of 3% (w/v) glucose, 0.1% (w/v) KH2PO4, 0.05% (w/v) MgSO4, 0.05% (w/v) KCl, and 0.1% (w/v) NaNO3, which was replaced by 0.1% (v/v) of n-butylamine (MAO inducer) in the induction medium. The concentration of n-butylamine was optimized (tested concentrations: 0.01, 0.03, 0.05, 0.10, 0.15, 0.20, and 0.50%) to maximize the biosynthesis of MAO. The mycelium was collected by filtration, wet mass was weighed and used for further experiments.
as §1

[12] = purified MAO P3 1 U/mL, 0.1 M potassium phosphate buffer pH 7.2, 30 °C
[13] = induction medium inoculated from glycerol stock (no solid preculture)
[14] = inoculation from solid culture (7 days, 20 °C)

NCCc1ccccc1 [2-phenethylamine]
Km [1]: 100 µM

Cc1cc2nc3c(=O)[nH]c(=O)nc-3n(C[C@H](O)[C@H](O)[C@H](O)COP(=O)(O)OP(=O)(O)OC[C@H]3O[C@@H](n4cnc5c(N)ncnc54)[C@H](O)[C@@H]3O)c2cc1C [FAD, flavin adenine dinucleotide]
change of MAO P3 activity [2]: increased two-fold

CCC(C)N (centres unmarked) [Substrate 1, sec-butylamine]
Km [3, 12]: 18000 µM
Vmax [3, 12]: 0.17 mM/h
Rate of Oxidation [4]: 29%

NC1CCCC1 [Substrate 2, cyclopentylamine]
Km [3, 12]: 8220 µM
Vmax [3, 12]: 0.47 mM/h
Rate of Oxidation [4]: 31%

C1CCNC1 [Substrate 3, pyrrolidine]
Km [3, 12]: 14300 µM
Vmax [3, 12]: 0.16 mM/h
Rate of Oxidation [4]: 36%

CN1CCCC1 [Substrate 4, 1-methylpyrrolidine]
conversion by MAO P3 after prolonged incubation (in words) [5]: unconverted
oxidation/conversion by MAO P3 (in words) [4]: no activity
Rate of Oxidation [4]: 0%

CC(N)c1ccccc1 (stereo not drawn) [Substrate 5, α-methylbenzylamine]
kcat [1]: 0.00283 s⁻¹
Km [6]: 400 µM
Km [3, 12]: 4100 µM and 4130 µM
Vmax [3, 12]: 0.27 mM/h
Rate of Oxidation [4]: 41%

C1CCCNCC1 [Substrate 6, hexamethyleneimine]
Km [3, 12]: 2640 µM and 2560 µM
Vmax [3, 12]: 0.72 mM/h
Rate of Oxidation [4]: 30%

O=C1NC2C=CC1C2 (centres unmarked) [Substrate 7, 2-azabicyclo[2.2.1]hept-5-en-3-one]
Rate of Oxidation [4]: 0%

c1ccncc1 [Substrate 8, pyridine]
Rate of Oxidation [4]: 0%

CC1(C)C2CNCC21 (centres unmarked) [Substrate 9, 6,6-dimethyl-3-azabicyclo[3.1.0]hexane]
MAO activity towards the amine [7, 13]: 959 ± 7.2 U/L
MAO activity towards the amine [7, 14]: 1470 ± 10.6 U/L
Km [3, 12]: 2400 µM
Vmax [3, 12]: 1.1 mM/h
Rate of Oxidation [4]: 100%

C1CC2CNCC2C1 (centres unmarked) [Substrate 10, 3-azabicyclo[3.3.0]octane]
rate of initial oxidation [8]: 16%
Km [3, 12]: 10400 µM
Vmax [3, 12]: 0.24 mM/h
Rate of Oxidation [4]: 67%

C1CC[C@H]2CNC[C@H]2C1 [Substrate 11, cis-8-azabicyclo[4.3.0]nonane]
rate of initial oxidation [8]: 19%
conversion by MAO P3 after prolonged incubation (in words) [5]: unconverted
Rate of Oxidation [4]: 0%

c1ccc2c(c1)CCN2 [Substrate 12, indoline]
Km ([3]; pH 7.2): 20400 µM
Vmax [3, 12]: 0.14 mM/h
Rate of Oxidation [4]: 9%

NCCN1CCCC1 [Substrate 13, 1-(2-aminoethyl)pyrrolidine]
conversion by MAO P3 after prolonged incubation (in words) [5]: unconverted
oxidation/conversion by MAO P3 (in words) [4]: no activity
Rate of Oxidation [4]: 0%

NC(c1ccccc1)c1ccccc1 [Substrate 14, benzylhydrylamine]
conversion by MAO P3 after prolonged incubation (in words) [5]: unconverted
oxidation/conversion by MAO P3 (in words) [4]: not able to oxidize
Rate of Oxidation [4]: 0%

NCCCCN [Substrate 15, putrescine]
oxidation/conversion by MAO P3 (in words) [4]: not able to convert
Rate of Oxidation [4]: 0%

NCCCCNCCCN [Substrate 16, spermidine]
oxidation/conversion by MAO P3 (in words) [4]: not able to convert
Rate of Oxidation [4]: 0%

CCCCCN [amylamine]
kcat [1]: 16.67 s⁻¹

NCc1ccccc1 [benzylamine]
Km [1]: 240 µM
kcat [1]: 6.18 s⁻¹

C#CCN(C)CCCOc1ccc(Cl)cc1Cl [clorgyline]
IC50 [9]: 1.2 nM
low concentration that inhibits MAO A [9]: 10^−8 M
IC50 [10]: 18 nM

CCCCCCN [hexylamine]
Km [1]: 200 µM

CCCCN [n-butylamine]
MAO activity towards the amine [7, 13]: 910 ± 4.8 U/L
MAO activity towards the amine [7, 14]: 1350 ± 10.5 U/L
effect on the psychrophilic strains [11]: acted deadly
Relative Activity of MAO P3 ([11]; 0.01% n-butylamine in induction medium): 6.4 ± 0.31%
Relative Activity of MAO P3 ([11]; 0.03% n-butylamine in induction medium): 19.9 ± 0.31%
Relative Activity of MAO P3 ([11]; 0.05% n-butylamine in induction medium): 30.7 ± 0.20%
Relative Activity of MAO P3 ([11]; 0.10% n-butylamine in induction medium): 100.0%
Relative Activity of MAO P3 ([11]; 0.15% n-butylamine in induction medium): 45.9 ± 0.34%
Relative Activity of MAO P3 ([11]; 0.20% n-butylamine in induction medium): 9.6 ± 0.20%
Relative Activity of MAO P3 ([11]; 0.50% n-butylamine in induction medium): 0.0%
Km [1]: 600 µM

CCCN [propylamine]
Km [1]: 1600 µM
